For test [1], the system named is HeLa. Description: Cytotoxicity against human HeLa cells assessed as inhibition of cell growth. In kind it is functional, cell-based.
In test [2] the test system is SGC-7901. Description: Cytotoxicity against human SGC-7901 cells assessed as inhibition of cell growth. In kind it is functional, cell-based.
The test system of test [3] is HCT-116. Put plainly: Cytotoxicity against human HCT-116 cells assessed as inhibition of cell growth. In kind it is functional, cell-based.
For test [4], the system named is Staphylococcus aureus. Put plainly: Antibacterial activity against methicillin resistant Staphylococcus aureus USA300. In kind it is functional.
Test [5] relates to Staphylococcus aureus. Put plainly: Antibacterial activity against Staphylococcus aureus. In kind it is functional, organism-based.
Test [6] has as its system Plasmodium falciparum. Put plainly: Antimalarial activity against Plasmodium falciparum. In kind it is functional, organism-based.

Converted amounts (≈) assume the structure as drawn. Some results are limits rather than exact numbers.

Among the data in ChEMBL document CHEMBL5230102, “Bicyclic polyprenylated acylphloroglucinols and their derivatives: structural modification, structure-activity relationship, biological activity and mechanism of action” (Eur J Med Chem, 2020) are IC50 and MIC values, retold here.

Take `CC(C)=CCC/C(C)=C/C[C@@H]1C[C@]2(C/C=C(\C)CCC=C(C)C)C(=O)[C@@](CC=C(C)C)(C(=O)C(C(=O)c3ccc(O)c(O)c3)=C2O)C1(C)C`: the values for the IC50 in test [1], in test [2] and in test [3] were 8.09 µg/mL (≈ 12.1 µM), 4.05 µg/mL (≈ 6.04 µM) and 4.92 µg/mL (≈ 7.33 µM), respectively.
As for `C=C(C)[C@H](CC=C(C)C)C[C@]12C[C@H](CC=C(C)C)C(C)(C)[C@](CC=C(C)C)(C(=O)C(C(=O)c3ccc(O)c(O)c3)=C1O)C2=O`, the MIC in test [4] was determined as 7 µg/mL (≈ 11.6 µM).
Consider `CC(C)=CC[C@@H]1C[C@]23C[C@@H](CC=C(C)C)C(C)(C)[C@](CC=C(C)C)(C(=O)C(C(=O)c4ccc(O)c(O)c4)=C2OC1(C)C)C3=O`, for which, in test [4], the MIC was greater than 30 µg/mL.
`CC(C)=CCC/C(C)=C/C[C@]12C[C@@H](CC=C(C)C)C(C)(C)[C@](CC=C(C)C)(C(=O)C(C(=O)c3ccc(O)c(O)c3)=C1O)C2=O`: the values for the IC50 in test [1], in test [2] and in test [3] were 11.7 µg/mL (≈ 19.4 µM), 5.48 µg/mL (≈ 9.09 µM) and 8.6 µg/mL (≈ 14.3 µM), respectively.
Take `CC(C)=CC[C@@H]1C[C@]2(CC=C(C)C)C(=O)[C@@](CC=C(C)C)(C(=O)C(C(=O)c3ccccc3)=C2O)C1(C)C`: the figures for the IC50 in test [1], in test [2] and in test [3] were 12 µg/mL (≈ 23.8 µM), 12 µg/mL (≈ 23.8 µM) and 6.87 µg/mL (≈ 13.7 µM), respectively.
Regarding `CC1(C)[C@H](Cc2ccccc2)C[C@@]2(Cc3ccccc3)C(=O)[C@]1(C)C(=O)C(C(=O)c1ccccc1)=C2O`, the MIC in test [4] is greater than 30 µg/mL.
As for `CC(=O)C1=C(O)[C@@]2(CC=C(C)C)C[C@@H](CC=C(C)C)C(C)(C)[C@@](CC=C(C)C)(C1=O)C2=O`, 1 µg/mL (≈ 2.27 µM) was the least that counted as inhibitory in test [4] (MIC).
Still for that read-out and setting: the same measure for `C=CC[C@@]12C[C@@H](CC=C(C)C)C(C)(C)[C@@](CC=C)(C(=O)C(C(C)=O)=C1O)C2=O`: 2 µg/mL (≈ 5.2 µM); for `C=CC[C@@]12C(=O)C(C(=O)c3ccccc3)=C(O)[C@@](Cc3ccccc3)(C[C@@H](CC=C(C)C)C1(C)C)C2=O`: 4 µg/mL (≈ 8.05 µM).
Take `CC(C)=CCC/C(C)=C/C[C@]12C(=O)CC(=O)[C@](CC=C(C)C)(C[C@@H](CC=C(C)C)C1(C)C)C2=O`: the results for the IC50 in test [1], in test [2] and in test [3] were 11.7 µg/mL (≈ 25 µM), 8.5 µg/mL (≈ 18.2 µM) and 10.9 µg/mL (≈ 23.4 µM), respectively.
As for `CC(C)=CCC(=O)C1=C(O)[C@@]2(C)C[C@@H](CC=C(C)C)C(C)(C)[C@@](CC=C(C)C)(C1=O)C2=O`, the MIC in test [4] was 4 µg/mL (≈ 9.08 µM).
On the same count and under the same terms, with `CC(C)=CC[C@@]12C[C@@H](Cc3ccccc3)C(C)(C)[C@@](C)(C(=O)C(C(=O)c3ccccc3)=C1O)C2=O` the figure was greater than 30 µg/mL.
On the same count and under the same terms, with `CC(C)=CC[C@@]12C[C@@H](Cc3ccccc3)C(C)(C)[C@@](CC=C(C)C)(C(=O)C(C(=O)c3ccccc3)=C1O)C2=O` the figure was 4 µg/mL (≈ 7.62 µM).
Still for that read-out and setting: with `C=CC[C@@]12C[C@@H](CC=C(C)C)C(C)(C)[C@@](CC=C)(C(=O)C(C(=O)C(C)C)=C1O)C2=O` the figure was 2 µg/mL (≈ 4.85 µM).
Take `CC(C)=CCC/C(C)=C/C[C@]12C[C@@H](CC=C(C)C)C(C)(C)[C@](C/C=C(\C)CCC=C(C)C)(C(=O)CC1=O)C2=O`: the IC50 in test [1], in test [2] and in test [3] was greater than 20 µg/mL each time.
On to `C=CC[C@@]12C(=O)C(C(=O)C(C)C)=C(O)[C@@](Cc3ccccc3)(C[C@@H](CC=C(C)C)C1(C)C)C2=O`, for which, in test [4], it took 1 µg/mL (≈ 2.16 µM) to inhibit growth (MIC).
In test [4], `C=CC[C@@]12C(=O)C(C(C)=O)=C(O)[C@@](Cc3ccccc3)(C[C@@H](CC=C(C)C)C1(C)C)C2=O` registered an MIC of 1 µg/mL (≈ 2.3 µM).
Still for that read-out and setting: with `CC(C)=CC[C@@H]1C[C@@]2(Cc3ccccc3)C(=O)[C@](C)(C(=O)C(C(=O)c3ccccc3)=C2O)C1(C)C` the figure was greater than 30 µg/mL; with `CC(C)=CC[C@@]12C(=O)C(C(=O)c3ccccc3)=C(O)[C@@](Cc3ccccc3)(C[C@@H](Cc3ccccc3)C1(C)C)C2=O`, 4 µg/mL (≈ 7.32 µM); with `CC(=O)C1=C(O)[C@@]2(Cc3ccccc3)C[C@@H](CC=C(C)C)C(C)(C)[C@@](CC=C(C)C)(C1=O)C2=O`, 0.5 µg/mL (≈ 1.08 µM).
Take `CC(C)=CCC/C(C)=C/C[C@@H]1C[C@@]2(CC=C(C)C)C(=O)CC(=O)[C@](CC=C(C)C)(C2=O)C1(C)C`: the IC50 stood at 9.69 µg/mL (≈ 20.8 µM) in test [1], 6.89 µg/mL (≈ 14.8 µM) in test [2] and 9.14 µg/mL (≈ 19.6 µM) in test [3].
On the same counts, the results for `CC(C)=CCC/C(C)=C/C[C@]12C[C@@H](CC=C(C)C)C(C)(C)[C@](CC=C(C)C)(C(=O)CC1=O)C2=O` are 6.64 µg/mL (≈ 14.2 µM), 5.6 µg/mL (≈ 12 µM) and 6.46 µg/mL (≈ 13.8 µM).
In the case of `CC(C)=CC[C@@H]1C[C@@]2(CC=C(C)C)C(=O)[C@](CC=C(C)C)(C(=O)C(C(=O)C(C)C)=C2O)C1(C)C`, the MIC in test [4] amounted to 2 µg/mL (≈ 4.27 µM).
As for `CC(C)=CC[C@H]1C[C@@]2(CC=C(C)C)C(=O)c3c(oc4cc(O)c(O)cc4c3=O)[C@](CC=C(C)C)(C2=O)C1(C)C`, the half-maximal inhibitory concentration (IC50) came to 7.65 µg/mL (≈ 14.4 µM) in test [1], 7.65 µg/mL (≈ 14.4 µM) in test [2] and 5.96 µg/mL (≈ 11.2 µM) in test [3].
`CC(C)=CC[C@@H]1C[C@@]2(Cc3ccccc3)C(=O)[C@](CC=C(C)C)(C(=O)C(C(=O)c3ccccc3)=C2O)C1(C)C` yielded a minimal inhibitory concentration (MIC) in test [4] of 1 µg/mL (≈ 1.91 µM).
Still for that read-out and setting: with `CC(C)=CCC(=O)C1=C(O)[C@@]2(Cc3ccccc3)C[C@@H](CC=C(C)C)C(C)(C)[C@@](CC=C(C)C)(C1=O)C2=O` the figure was 2 µg/mL (≈ 3.87 µM).
On to `CC(C)=CCC/C(C)=C/C[C@@H]1C[C@@]2(C/C=C(\C)CCC=C(C)C)C(=O)CC(=O)[C@](CC=C(C)C)(C2=O)C1(C)C`, for which the IC50 in test [1], in test [2] and in test [3] was greater than 20 µg/mL each time.
As for `CC(C)=CCC1=C(O)[C@@]2(C(=O)c3ccccc3)C(=O)[C@](CC=C(C)C)(C[C@H](CC=C(C)C)C2(C)C)C1=O`, the IC50 in test [5] and in test [6] was less than 1000 nM throughout.
`CC(C)=CC[C@H]1C[C@@]2(CC=C(C)C)C(=O)c3c(oc4c(O)c(O)ccc4c3=O)[C@](CC=C(C)C)(C2=O)C1(C)C`: the IC50 in test [1] came to 4.69 µg/mL (≈ 8.8 µM); in test [2] it was 4.69 µg/mL (≈ 8.8 µM); in test [3], 2.44 µg/mL (≈ 4.58 µM).
The compound `CC(C)=CC[C@@H]1C[C@@]2(CC=C(C)C)C(=O)[C@](C)(C(=O)C(C(=O)c3ccccc3)=C2O)C1(C)C` returned an MIC in test [4] greater than 30 µg/mL.
The same measure, in the same setting: the same measure for `CC(C)=CC[C@@H]1C[C@]2(CC=C(C)C)C(=O)C(C(=O)c3ccccc3)=C3O[C@H](C(C)(C)O)C[C@]3(C2=O)C1(C)C`: 4 µg/mL (≈ 7.71 µM); for `CC(C)=CC[C@@H]1C[C@@]2(CC=C(C)C)C(=O)[C@](CC=C(C)C)(C(=O)C(C(=O)c3ccccc3)=C2O)C1(C)C` [CLUSIANONE]: 1 µg/mL (≈ 1.99 µM).
Take `CC(C)=CCC/C(C)=C/C[C@]12C[C@@H](CC=C(C)C)C(C)(C)[C@](C/C=C(\C)CCC=C(C)C)(C(=O)C(C(=O)c3ccc(O)c(O)c3)=C1O)C2=O` [GUTTIFERONE O]: the IC50 in test [1], in test [2] and in test [3] was greater than 20 µg/mL in each case.
Consider `CC(C)=CCC/C(C)=C/C[C@@H]1C[C@]2(CC=C(C)C)C(=O)[C@@](CC=C(C)C)(C(=O)C(C(=O)c3ccc(O)c(O)c3)=C2O)C1(C)C` [OBLONGIFOLIN B], for which the IC50 in test [1], in test [2] and in test [3] was greater than 20 µg/mL throughout.

In general, IC50 refers to the concentration at which inhibition is half-maximal. The MIC is the smallest concentration in the dilution series that meets the test's criterion for growth inhibition. Low readings indicate inhibition by little substance, high ones a need for much substance.
